Our source for the IC50, EC50 and AC50 values is ChEMBL document CHEMBL1201862, “PubChem BioAssay data set” (2004).

One data set deals with T1, Hexokinase HKDC1 (Homo sapiens, UniProt Q2TB90).
T1 sequence (Q2TB90 whole entry): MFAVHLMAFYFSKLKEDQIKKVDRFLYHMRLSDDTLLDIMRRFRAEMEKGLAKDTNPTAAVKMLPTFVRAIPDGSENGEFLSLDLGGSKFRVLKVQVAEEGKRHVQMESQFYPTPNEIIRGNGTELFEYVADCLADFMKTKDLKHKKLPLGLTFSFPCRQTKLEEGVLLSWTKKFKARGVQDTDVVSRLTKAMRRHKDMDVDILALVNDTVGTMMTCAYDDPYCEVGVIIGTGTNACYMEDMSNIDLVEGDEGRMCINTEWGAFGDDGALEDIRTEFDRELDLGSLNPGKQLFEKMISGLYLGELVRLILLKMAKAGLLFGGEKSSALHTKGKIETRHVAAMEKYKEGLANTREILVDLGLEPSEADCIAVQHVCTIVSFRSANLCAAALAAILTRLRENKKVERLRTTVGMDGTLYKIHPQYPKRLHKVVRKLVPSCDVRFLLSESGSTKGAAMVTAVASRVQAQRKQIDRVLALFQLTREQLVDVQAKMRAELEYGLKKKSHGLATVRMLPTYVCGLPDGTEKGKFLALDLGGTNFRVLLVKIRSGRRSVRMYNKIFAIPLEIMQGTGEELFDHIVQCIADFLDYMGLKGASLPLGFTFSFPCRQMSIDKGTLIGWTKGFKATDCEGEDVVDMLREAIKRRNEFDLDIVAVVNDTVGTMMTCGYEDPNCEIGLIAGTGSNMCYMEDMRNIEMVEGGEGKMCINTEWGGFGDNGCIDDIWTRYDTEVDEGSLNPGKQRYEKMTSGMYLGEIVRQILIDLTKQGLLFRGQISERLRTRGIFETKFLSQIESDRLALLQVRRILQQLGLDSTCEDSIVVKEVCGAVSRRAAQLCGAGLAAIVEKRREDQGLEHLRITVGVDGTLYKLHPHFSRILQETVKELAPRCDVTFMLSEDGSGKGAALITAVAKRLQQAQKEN
The data set is described as follows: HKDC1 hexokinase inhibitors, SAR follow-up, biochemical, set 2 (AID 588355). It is filed as functional.

The target in another data set is Hexokinase-1 (Homo sapiens, UniProt P19367). The data set is described as follows: HK1 enzyme inhibition by HKDC1 hits, SAR follow-up, selectivity assay for HKDC1 inhibitor project, biochemical, set 2, resazurin fluorescence coupled readout (AID 588356). It counts as functional. (Resazurin is reduced to fluorescent resorufin, in cell work by metabolically active cells.)
Sequence of Hexokinase-1 (P19367 whole entry): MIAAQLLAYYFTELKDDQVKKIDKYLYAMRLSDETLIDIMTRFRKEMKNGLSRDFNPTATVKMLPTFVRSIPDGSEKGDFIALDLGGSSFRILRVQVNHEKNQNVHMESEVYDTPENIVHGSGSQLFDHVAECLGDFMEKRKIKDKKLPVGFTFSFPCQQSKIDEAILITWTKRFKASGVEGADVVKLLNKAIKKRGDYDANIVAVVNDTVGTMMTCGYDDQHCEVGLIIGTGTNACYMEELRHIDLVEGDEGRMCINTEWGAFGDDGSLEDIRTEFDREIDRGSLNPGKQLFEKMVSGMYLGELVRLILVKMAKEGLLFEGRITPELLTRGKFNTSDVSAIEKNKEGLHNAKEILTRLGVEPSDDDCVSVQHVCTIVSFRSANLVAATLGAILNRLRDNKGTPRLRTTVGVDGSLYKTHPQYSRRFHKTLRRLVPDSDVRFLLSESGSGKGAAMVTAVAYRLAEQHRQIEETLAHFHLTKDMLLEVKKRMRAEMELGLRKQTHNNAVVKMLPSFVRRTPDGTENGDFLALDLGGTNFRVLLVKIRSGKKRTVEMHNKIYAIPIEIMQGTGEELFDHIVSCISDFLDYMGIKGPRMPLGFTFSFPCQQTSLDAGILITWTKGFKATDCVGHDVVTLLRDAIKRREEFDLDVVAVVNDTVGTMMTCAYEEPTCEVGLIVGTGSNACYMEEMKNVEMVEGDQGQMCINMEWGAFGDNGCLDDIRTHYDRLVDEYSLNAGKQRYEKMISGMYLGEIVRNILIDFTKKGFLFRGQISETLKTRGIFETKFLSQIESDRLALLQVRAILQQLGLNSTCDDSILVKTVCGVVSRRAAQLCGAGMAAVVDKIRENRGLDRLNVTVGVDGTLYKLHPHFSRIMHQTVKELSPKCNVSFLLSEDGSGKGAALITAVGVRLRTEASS

In a further data set the target is SUMO E1/E2 (Homo sapiens, UniProt P63279+Q9UBE0+Q9UBT2). The experiment in a line: SAR analysis of SUMOylation using HTRF in an in-Vitro dose response assay. [Related pubchem assays (depositor defined):AID2006, AID2011, AID2018, AID2069, AID2658]. It counts as functional.
Sequence of SUMO E1/E2 (Q9UBE0 whole entry): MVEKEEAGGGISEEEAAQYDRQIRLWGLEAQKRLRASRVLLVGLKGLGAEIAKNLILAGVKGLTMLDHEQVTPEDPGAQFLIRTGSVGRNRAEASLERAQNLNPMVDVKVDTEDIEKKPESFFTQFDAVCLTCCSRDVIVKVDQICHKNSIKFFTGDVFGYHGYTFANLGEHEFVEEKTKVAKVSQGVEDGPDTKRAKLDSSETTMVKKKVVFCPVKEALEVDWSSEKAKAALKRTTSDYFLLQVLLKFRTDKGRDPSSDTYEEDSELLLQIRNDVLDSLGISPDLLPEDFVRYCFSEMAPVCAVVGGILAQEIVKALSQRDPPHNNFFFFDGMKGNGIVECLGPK
Sequence of SUMO E1/E2 (Q9UBT2 whole entry): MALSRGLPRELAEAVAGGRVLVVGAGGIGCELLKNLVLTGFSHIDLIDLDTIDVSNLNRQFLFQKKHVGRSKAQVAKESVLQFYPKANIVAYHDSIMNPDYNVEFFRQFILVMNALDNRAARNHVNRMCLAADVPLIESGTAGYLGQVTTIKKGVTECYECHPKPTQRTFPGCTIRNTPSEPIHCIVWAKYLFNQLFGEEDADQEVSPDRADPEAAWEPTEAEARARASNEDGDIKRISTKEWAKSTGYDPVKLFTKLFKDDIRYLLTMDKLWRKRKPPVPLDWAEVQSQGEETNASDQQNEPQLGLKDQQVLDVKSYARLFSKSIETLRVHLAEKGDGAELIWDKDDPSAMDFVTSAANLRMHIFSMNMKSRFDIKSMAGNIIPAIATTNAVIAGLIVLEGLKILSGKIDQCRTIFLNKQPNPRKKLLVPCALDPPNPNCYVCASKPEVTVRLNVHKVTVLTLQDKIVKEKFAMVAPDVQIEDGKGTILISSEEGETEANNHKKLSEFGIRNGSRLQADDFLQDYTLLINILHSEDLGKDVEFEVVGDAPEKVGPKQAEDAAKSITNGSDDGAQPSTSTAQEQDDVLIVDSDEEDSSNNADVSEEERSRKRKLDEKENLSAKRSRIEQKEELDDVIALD
Sequence of SUMO E1/E2 (P63279 whole entry): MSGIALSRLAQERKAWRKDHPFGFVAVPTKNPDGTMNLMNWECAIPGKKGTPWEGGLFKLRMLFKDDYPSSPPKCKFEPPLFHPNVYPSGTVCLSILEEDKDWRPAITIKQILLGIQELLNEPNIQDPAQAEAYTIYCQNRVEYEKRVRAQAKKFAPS
The target of a further data set is T2, Streptokinase A (Streptococcus pyogenes serotype M1, UniProt P10520).
T2 sequence (P10520 whole entry): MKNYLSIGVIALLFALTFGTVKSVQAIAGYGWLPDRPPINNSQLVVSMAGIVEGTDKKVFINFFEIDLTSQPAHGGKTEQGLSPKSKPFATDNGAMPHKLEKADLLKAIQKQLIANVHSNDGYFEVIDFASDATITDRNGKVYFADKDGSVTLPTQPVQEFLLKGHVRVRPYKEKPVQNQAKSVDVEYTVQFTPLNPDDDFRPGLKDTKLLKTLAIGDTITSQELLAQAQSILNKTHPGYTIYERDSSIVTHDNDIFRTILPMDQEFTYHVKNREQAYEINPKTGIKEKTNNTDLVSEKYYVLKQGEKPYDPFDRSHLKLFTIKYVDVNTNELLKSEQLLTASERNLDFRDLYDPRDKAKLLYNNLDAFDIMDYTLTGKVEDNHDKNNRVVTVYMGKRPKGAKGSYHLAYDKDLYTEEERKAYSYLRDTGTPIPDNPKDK
The experiment in a line: S. pyogenes streptokinase expression inhibitors, potency, dose response, plasminogen activation absorbance, OD405 (AID 1914).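 Note: secreted streptokinase activity via plasminogen activation per viability signal from cell pellet.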 It is filed as functional, Streptococcus pyogenes M1 GAS.

The subject of another data set is Escherichia coli. The experiment in a line: microbe, parasite or virus in culture.
Data set [1] in a line: NIH-3T3 fibroblast cytotoxicity, dose response, cytotoxicity control, cell-based, fluorescence, Alamar Blue, secondary assay (AID 2327).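 Note: NIH-3T3 mouse fibroblasts cultured with fluconazole at 8 µg/mL.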 It is filed as functional.
Data set [2] can be described thus: C. albicans growth with fluconazole, confirmation, fluorescence, retest (AID 2467). It is filed as functional, cell-based.
Data set [3] relates to Streptococcus sp. 'group A'. The experiment in a line: growth inhibition of control SK(-) GAS strain, dose response, counter-screen for streptokinase expression inhibitor project, luminescence, kanamycin, BacTiterGlo, confirmation (AID 1900). It is filed as functional, organism-based. (In general: Counterscreens check selectivity or assay interference.)
In the next data set the test system is Streptococcus. The experiment in a line: Group A Streptococcus viability loss, dose response, counter-screen for streptokinase expression inhibitor project, luminescence, BacTiterGlo (AID 1915).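 Note: potency for reduction of bacterial viability or growth.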 It counts as functional, organism-based.
The nature of data set [4]: cells. It counts as functional, cell-based.
Data set [5] in a line: cytotoxicity in MIN6 insulinoma cells, dose response, cytotoxicity control, cell-based, mouse insulinoma (AID 2122).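 Note: confirmatory high-throughput counterscreen run to flag cytotoxic compounds; mouse MIN-6 beta cells carrying an insulin promoter eGFP reporter.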 It is filed as functional.
A short description of data set [6]: cells. It is filed as functional, cell-based. The source holds these as a separate data set.
The nature of data set [7]: insulin promoter down-regulators in MIN6 cells, imaging, high-content screening, mouse beta cells (AID 1628). It is filed as functional.
A further data set deals with Nonstructural protein 1 (Influenza A virus, UniProt Q194T2). It counts as functional, Influenza A virus (A/California/07/2009(H1N1)).
Sequence of Nonstructural protein 1 (Q194T2 whole entry): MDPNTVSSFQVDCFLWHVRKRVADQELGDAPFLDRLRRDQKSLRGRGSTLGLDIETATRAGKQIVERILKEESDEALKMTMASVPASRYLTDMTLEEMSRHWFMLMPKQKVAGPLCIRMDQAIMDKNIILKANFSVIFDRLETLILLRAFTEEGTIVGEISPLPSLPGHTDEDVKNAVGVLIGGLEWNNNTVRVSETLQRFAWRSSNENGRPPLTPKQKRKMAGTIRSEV
The subject of the next data set is HeLa. The data set is described as follows: HeLa cell cytotoxicity, dose response, cytotoxicity control for MITF activator project, CellTiter-Glo luminescence, cherry-pick samples (AID 540259). It is filed as functional, cell-based. Conditions: Homo sapiens.
The target of data set [8] is Potassium voltage-gated channel subfamily KQT member 2 (Rattus norvegicus, UniProt O88943). The experiment in a line: KCNQ2 channel activators, analog series, SAR follow-up, automated patch clamp, KCNQ2-CHO cells (AID 493113). It counts as functional. Background: Patch clamp records ionic current or voltage across a cell membrane.
Sequence of Potassium voltage-gated channel subfamily KQT member 2 (O88943 whole entry): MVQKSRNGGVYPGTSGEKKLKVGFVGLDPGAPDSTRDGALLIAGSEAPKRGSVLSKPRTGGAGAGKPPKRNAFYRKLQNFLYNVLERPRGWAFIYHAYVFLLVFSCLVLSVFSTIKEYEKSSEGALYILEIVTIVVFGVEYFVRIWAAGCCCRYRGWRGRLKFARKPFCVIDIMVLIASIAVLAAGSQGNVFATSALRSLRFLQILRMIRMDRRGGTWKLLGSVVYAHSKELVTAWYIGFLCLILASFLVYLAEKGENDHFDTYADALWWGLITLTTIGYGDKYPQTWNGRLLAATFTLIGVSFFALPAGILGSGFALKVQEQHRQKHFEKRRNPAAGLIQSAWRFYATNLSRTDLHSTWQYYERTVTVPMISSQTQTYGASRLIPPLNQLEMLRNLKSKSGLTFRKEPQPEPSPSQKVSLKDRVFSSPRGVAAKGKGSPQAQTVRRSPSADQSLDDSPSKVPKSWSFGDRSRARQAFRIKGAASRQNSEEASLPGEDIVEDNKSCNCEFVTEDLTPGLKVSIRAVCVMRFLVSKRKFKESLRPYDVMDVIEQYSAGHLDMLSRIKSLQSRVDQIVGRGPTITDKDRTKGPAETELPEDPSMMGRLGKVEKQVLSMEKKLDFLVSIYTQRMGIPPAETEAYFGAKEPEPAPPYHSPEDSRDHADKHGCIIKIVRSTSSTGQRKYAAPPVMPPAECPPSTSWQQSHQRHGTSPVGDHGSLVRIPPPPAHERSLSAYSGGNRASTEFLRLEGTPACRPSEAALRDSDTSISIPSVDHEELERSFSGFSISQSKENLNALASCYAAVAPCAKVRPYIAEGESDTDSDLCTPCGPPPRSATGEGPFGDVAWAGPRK
Another data set deals with Cytochrome P450 3A4 (Homo sapiens, UniProt P08684).
Sequence of Cytochrome P450 3A4 (P08684 whole entry): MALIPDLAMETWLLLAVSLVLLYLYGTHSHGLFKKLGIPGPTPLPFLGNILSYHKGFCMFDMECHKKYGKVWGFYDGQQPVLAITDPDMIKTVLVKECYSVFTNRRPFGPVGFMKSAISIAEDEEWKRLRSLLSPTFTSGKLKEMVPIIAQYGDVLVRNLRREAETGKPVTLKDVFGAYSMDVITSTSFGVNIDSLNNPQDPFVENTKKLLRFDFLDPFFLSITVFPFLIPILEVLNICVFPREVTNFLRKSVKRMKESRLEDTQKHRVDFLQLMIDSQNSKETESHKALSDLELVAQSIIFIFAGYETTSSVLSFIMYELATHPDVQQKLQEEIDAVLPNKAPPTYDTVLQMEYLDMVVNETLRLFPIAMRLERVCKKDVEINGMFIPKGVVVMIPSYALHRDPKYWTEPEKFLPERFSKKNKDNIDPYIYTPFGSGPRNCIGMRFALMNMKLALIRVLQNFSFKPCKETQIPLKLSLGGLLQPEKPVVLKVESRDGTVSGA

Broadly, the IC50 is the concentration that inhibits the measured activity by half. The EC50 is the midpoint of the concentration-response curve. As a reminder, the AC50 is the midpoint of the concentration-response curve, whichever way the signal moves.

Activity calls are given as the source filed them.

Consider `COc1cc2c(cc1OC)-c1cc(Nc3ncn[nH]3)nc(=O)n1CC2`, for which the IC50 at Hexokinase HKDC1 and at Hexokinase-1 was > 80 µM (inactive) each time.

In the case of `COc1ccc2c(c1)C(NC(C)=O)C(=O)N2CCN1CCOCC1` (configuration not stated), the IC50 at Hexokinase HKDC1 was 8.31 µM (active); at SUMO E1/E2, 9.45 µM (active); on Hexokinase-1, > 80 µM (inactive).

For the compound `C/C(=C\C(=O)OCCCCCCCCC(=O)O)C[C@@H]1OC[C@H](C[C@@H]2O[C@H]2[C@@H](C)[C@H](C)O)[C@@H](O)[C@H]1O` [MUPIROCIN], the EC50 is 0.423 µM (active) on Streptokinase A; > 150 µM (inactive) in data set [1]; > 38 µM (not active) in [2]; < 0.06 µM (active) in [3]; < 0.06 µM (active) in the data set on Streptococcus. Besides, in the data set with Escherichia coli, the AC50 is 4.99 µM (active).

As to `Cc1cc(NC(c2cccnc2)c2ccc3cccnc3c2O)no1` (configuration not stated), the results for the EC50 in the data set “cells [4]” and in “cells [6]” were 11.9 µM (active) and > 350 µM (not active), respectively. Also, the IC50 in data set [5] is 3.65 µM (active); in [7] it was 3.53 µM (active); on Nonstructural protein 1, 7.09 µM (active).

Turning to `Cc1cc(C)c2nc(NCc3ccccc3O)sc2c1`, the AC50 in the data set with HeLa was 42.4 µM (active).

On to `Cc1ccc(NC(=O)C2CC3CCC2C3)cc1` (configuration not stated), for which the EC50 in data set [8] is 0.75 µM (active).

Turning to `Cc1cccc(NC(=O)C2CC3CCC2C3)c1C` (configuration not stated), the EC50 in data set [8] is 1 µM (active).

On to `O=C(c1ccccc1)c1ccc(OCC(O)CN2CCN(Cc3ccccc3)CC2)cc1` (configuration not stated), for which, on Cytochrome P450 3A4, the AC50 result is “inconclusive”.

In the case of `COC(=O)CN1C(=O)N/C(=C/c2ccccc2OC)C1=O`, in the data set with Escherichia coli, the AC50 was 60.7 µM (active).

For the compound `CC1(C)CC(/C=C/c2ccccc2)=Nc2ccccc2N1`, the AC50 in the data set on HeLa is 37.3 µM (active).
